Experimental findings from a melting point compilation (Tetko et al.; mined from patent text by program, amines drawn as free bases though some values may be those of a salt) are described below.

In general, melting point refers to the temperature, or range, at which the solid turns liquid. Consider `COC(=O)c1ccc(NC(=O)c2ccccc2OC(C)C)c(C(=O)OC)c1`, for which the melting point is 107 to 110 °C.
The result for `Cc1ccc(Oc2ccccc2C(=O)O)c(NS(=O)(=O)c2cc(C(F)(F)F)cc(C(F)(F)F)c2)c1` reads 165 to 166 °C; that for `CC(=O)C1CCC2C3CCC4CC(O)C(OCCC#N)CC4(C)C3C(=O)CC12C` (stereo not drawn), 194 to 196 °C.
The result for `Cc1cccc2[nH]cnc12` reads 141 to 145 °C; that for `COC(=O)/C=C/c1ccc(OCc2oc(-c3ccc(C(F)(F)F)cc3)nc2C)cc1C`, 124 to 126 °C.
For `O=C(/C=C/C1CCCCC1)N1CCN(C(=O)c2cc(C(F)(F)F)cc(C(F)(F)F)c2)[C@H](Cc2c[nH]c3ccccc23)C1`, the melting point was 198 to 200 °C.
The result for `O=Cc1cc(S(=O)(=O)O)c2cccnc2c1O` reads 286 to 288 °C; that for `Cc1cc(-c2ccc(C(F)(F)F)nc2)cc(-c2cccc(-c3cccc(S(=O)(=O)NC(C)(C)C)c3)n2)n1`, 187 to 188 °C.
Under `CN(C)C1(c2ccccc2)CCC(NC(=S)NCCc2c[nH]c3ccccc23)CC1` (stereo not drawn) stands 98 to 103 °C; under `O=C(Nc1ccccn1)c1nnc2ccccc2c1O`, 341 to 343 °C.
Under `O=C(C=Cc1cccc([N+](=O)[O-])c1)N1CCc2c([nH]c3ccccc23)C1c1ccc2c(c1)CCO2` (stereo not drawn) stands 174 to 176 °C.
`CCNC(C)CN1CCc2c(c(=O)oc3cc(OC)ccc23)C1` (stereo not drawn) came in with a melting point of 97 to 100 °C.
As to `COC1=Cc2ccc(Cl)cc2C(O)(C2CCN(C)CC2)c2ccsc21` (stereo not drawn), the melting point is 200 to 202 °C.
The result for `NC(=O)c1ncn2c1[C@@H]1CCN1C(=O)c1sccc1-2` reads > 250 °C.
As for `Cc1nc(NC(=O)c2cc(Cl)ccc2F)sc1C(=O)NCc1ccccc1`, the melting point is 175 to 178 °C.
The compound `CCNC(=O)NCCC1CCCc2ccc(OC)cc21` (stereo not drawn) had a melting point of 70 to 71 °C.
The result for `CCCCCCCCC1C=CC(/C=C/c2ccc(C(=O)O)o2)=C2N=C3CCCC(C)(C)C3=C21` (stereo not drawn) reads 115 to 117 °C; that for `CC(C)[C@H](NC(=O)OCc1ccccn1)C(=O)N[C@@H](Cc1ccccc1)[C@H](O)[C@H](O)[C@H](Cc1ccccc1)NC(=O)OCc1cccnc1`, 166 to 168 °C.
Take `Cc1ccccc1-c1cc2cnc(N)nc2nc1N`: the melting point was 300 to 302 °C.
With `Nc1cc([N+](=O)[O-])c(Cl)cc1F`, the melting point was 82 to 83.5 °C.
Under `CC(C)c1ccc(NC(=O)OC(C)(C)C)c(NC(=O)CC(=O)c2ccnc(C#N)c2)c1` stands 163 to 165 °C.
Under `CN(c1cc(OC(F)(F)F)cc2cc(C3=NCCS3)[nH]c12)S(=O)(=O)c1cccs1` stands 179 to 180 °C; under `C=CCNC(=O)Cn1c(-c2ccc(Cl)cc2)nc2cccnc21`, 208 to 209 °C; under `CC(=O)SCC(Cc1ccc(N(C)C)cc1)C(=O)Nc1cccc(C(=O)O)c1` (stereo not drawn), 71 to 73 °C.
Under `NCc1ccc2c(c1)ncn2-c1cccc(-c2ccccn2)c1` stands 224 to 229 °C; under `O=C(CN1CCOCC1)Nc1ccn(-c2ccc(Cl)c(Cl)c2)n1`, 125 to 127 °C; under `COc1ccc(-c2nn(Cc3ccncc3)c(=O)cc2-c2ccc(Cl)cc2)cc1`, 142 to 143 °C.
`CC(=O)N1CCN(c2ccc(-n3ccnc3)cc2)CC1` gave a melting point of 181 to 182 °C.
Under `O=C(O)c1cccc(OCCCCCCc2cccc(O)c2O)c1` stands 123 to 125 °C; under `S=c1[nH]c(-c2ccccc2)c(-c2ccccc2)n1Nc1cccc(Cl)c1`, 178 to 180 °C.
Compound `O=C(c1ccc(CN2CCOCC2)cc1)c1cccc2nc(N[C@@H]3CCc4ccccc43)ccc12` showed a melting point of 160 °C.
In the case of `Cc1oc(-c2ccc3ccccc3c2)nc1COc1ccc(COc2ncccc2CO)cc1`, the melting point fell in the range of 161 to 162 °C.
Turning to `CC(C)C(=O)Nc1c(C(=O)c2occc2CO)[nH]c2cc(Cl)ccc12`, the melting point lay in the range of 170 to 171 °C.
